Measurements as given in patent US20260151486A1, “PRESSURIZED NANOEMULSION” (BIOFRONTERA BIOSCIENCE GMBH, priority 2023, published 2026).

Assays:
[1] = ALA content over storage time in nanoemulsion formulation; format: physicochemical; conditions: in BF200 with PX=2%, 3% 5-ALA; after 36 months storage at 2-25° C.
Procedure: Nanoemulsion formulations BF200 PX=2% glass and BF200 PX=2% foam were prepared as described in Example 5. The nanoemulsion formulations were stored at 25° C. and 2-8° C. The content of ALA was determined at 0 (starting point) and various time points during the 36 months storage period.

[2] = room temperature; cited from earlier work
[3] = TC content over storage time in nanoemulsion formulation; format: physicochemical; conditions: in BF220 with PX=4%, 0.1% TC
Procedure: Nanoemulsion formulations BF220 TC=0.1% glass and BF220 TC=0.1% foam were prepared as described in Example 6. The nanoemulsion formulations were stored at 2-8° C. and 25° C. The content of TC was determined at 0 (starting point) and various time points up to 48 months storage period.

Row | SMILES | ALA content [1] | stability in aqueous formulations [2] | TC content ([3]; after 6 months at 25° C.) | TC content ([3]; after 48 months storage at 2-8° C.)
1 | NCC(=O)CCC(=O)O [ALA, 5-aminolevulinic acid] | at least 90% | – | – | –
2 | C=CC[C@@H]1/C=C(\C)C[C@H](C)C[C@H](OC)[C@H]2O[C@@](O)(C(=O)C(=O)N3CCCC[C@H]3C(=O)O[C@H](/C(C)=C/[C@@H]3CC[C@@H](O)[C@H](OC)C3)[C@H](C)[C@@H](O)CC1=O)[C@H](C)C[C@@H]2OC [TC, Tacrolimus] | – | approx. 90 days | at least 95% | at least 95%
